Reference: patent publication US10111863B2 (CYDEX PHARMACEUTICALS, INC., priority 2009, dated 2018)
Counter-ions that a name gives are not always drawn. Like-named read-outs stand apart in the source and are kept apart here. Each block holds one molecule with its values, some of them ahead of it.

Tests used:
[1] = cited from earlier work
[2] = Phase solubility of prasugrel in aqueous SBE6.5-β-CD at pH 7.4; format: physicochemical; details: for solubility: aqueous solution, pH 7.4, aqueous with cosolvent or surfactant or cyclodextrin, thermodynamic from solid, Prasugrel Solubility
Description: The results of the phase solubility study at pH 7.4 are also depicted graphically in FIG. 2.

[3] = Phase solubility of prasugrel in aqueous SBE6.5-β-CD or HP4.3-β-CD at pH 4; format: physicochemical; details: for solubility: thermodynamic from solid
Description: The results of the phase solubility study at pH 4 are also depicted graphically in FIG. 3. […] Note that the data obtained for the 10% w/v cyclodextrin derivatives was not included in the best-fit line that appears in FIG. 3.

[4] = Stability of prasugrel in 30% w/v SBE6.5-β-CD at pH 3, 4 and 6 (HPLC); format: physicochemical; details: for decrease in prasugrel concentration: 30% w/v SBE6.5-β-CD
Method: The solutions were sampled at 0, 2, 7 and 53 hours. […] The data obtained from the stability study is provided graphically in FIG. 5.

[5] = Stability of prasugrel in 30% w/v SBE6.5-β-CD or HP4.3-β-CD at pH 4 (HPLC); format: physicochemical
platelet aggregation = details: after treatment is stopped; cited from earlier work
platelet = details: healthy subjects; cited from earlier work

SMILES: CC(=O)Oc1cc2c(s1)CCN(C(C(=O)C1CC1)c1ccccc1F)C2 (racemic) [Prasugrel hydrochloride]
- pKa value [1]: 5.1
- solubility ([1]; pH 1-4): soluble to slightly soluble
- solubility ([1]; pH 5): very slightly soluble
- solubility ([1]; pH 6-7): practically insoluble

- Prasugrel Solubility ([2]; SBE6.5-β-CD 5% w/v): 0.0054% w/v
- Prasugrel Solubility ([2]; SBE6.5-β-CD 10% w/v): 0.0124% w/v
- Prasugrel Solubility ([2]; SBE6.5-β-CD 20% w/v): 0.0252% w/v
- Prasugrel Solubility ([2]; SBE6.5-β-CD 30% w/v): 0.0379% w/v
- prasugrel solubility as a function of the derivatized cyclodextrin concentration ([2]; SBE6.5-β-CD, FIG. 2): increased linearly
- solubility ([2]; SBE6.5-β-CD 5% w/v): 54 µg/mL
- solubility ([2]; SBE6.5-β-CD 10% w/v): 124 µg/mL
- solubility ([2]; SBE6.5-β-CD 20% w/v): 252 µg/mL
- solubility ([2]; SBE6.5-β-CD 30% w/v): 379 µg/mL
- solubility ([2]; SBE6.5-β-CD 40% w/v): 515 µg/mL
- solubility ([3]; aqueous HP4.3-β-CD solution, pH 4, aqueous with cosolvent or surfactant or cyclodextrin, Prasugrel Solubility w/ HP4.3-β-CD, HP4.3-β-CD 30% w/v): 645 µg/mL
- solubility ([3]; aqueous SBE6.5-β-CD solution, pH 4, aqueous with cosolvent or surfactant or cyclodextrin, Prasugrel Solubility w/ SBE6.5-β-CD, SBE6.5-β-CD 30% w/v): 664 µg/mL
- solubility ([3]; aqueous solution, pH 4, aqueous buffer, Prasugrel Solubility w/ HP4.3-β-CD, cyclodextrin derivative 0% w/v): 206 µg/mL
- solubility ([3]; aqueous solution, pH 4, aqueous buffer, Prasugrel Solubility w/ SBE6.5-β-CD, cyclodextrin derivative 0% w/v): 206 µg/mL
- solubility ([3]; aqueous solution, pH 4, aqueous with cosolvent or surfactant or cyclodextrin, Prasugrel Solubility w/ HP4.3-β-CD, HP4.3-β-CD 5% w/v): 256 µg/mL
- solubility ([3]; aqueous solution, pH 4, aqueous with cosolvent or surfactant or cyclodextrin, Prasugrel Solubility w/ HP4.3-β-CD, HP4.3-β-CD 10% w/v): 474 µg/mL
- solubility ([3]; aqueous solution, pH 4, aqueous with cosolvent or surfactant or cyclodextrin, Prasugrel Solubility w/ HP4.3-β-CD, HP4.3-β-CD 20% w/v): 524 µg/mL
- solubility ([3]; aqueous solution, pH 4, aqueous with cosolvent or surfactant or cyclodextrin, Prasugrel Solubility w/ HP4.3-β-CD, HP4.3-β-CD 40% w/v): 875 µg/mL
- solubility ([3]; aqueous solution, pH 4, aqueous with cosolvent or surfactant or cyclodextrin, Prasugrel Solubility w/ SBE6.5-β-CD, SBE6.5-β-CD 5% w/v): 268 µg/mL
- solubility ([3]; aqueous solution, pH 4, aqueous with cosolvent or surfactant or cyclodextrin, Prasugrel Solubility w/ SBE6.5-β-CD, SBE6.5-β-CD 10% w/v): 736 µg/mL
- solubility ([3]; aqueous solution, pH 4, aqueous with cosolvent or surfactant or cyclodextrin, Prasugrel Solubility w/ SBE6.5-β-CD, SBE6.5-β-CD 20% w/v): 580 µg/mL
- solubility ([3]; aqueous solution, pH 4, aqueous with cosolvent or surfactant or cyclodextrin, Prasugrel Solubility w/ SBE6.5-β-CD, SBE6.5-β-CD 40% w/v): 927 µg/mL
- prasugrel solubility as a function of the derivatized cyclodextrin concentration ([3]; both HP4.3-β-CD and SBE6.5-β-CD, FIG. 3): increased linearly
- decrease in prasugrel concentration ([4]; pH 3, 0.1 M phosphate buffer, after 30 hours): less than 10%
- decrease in prasugrel concentration ([4]; pH 3, 0.1 M phosphate buffer, after about 55 hours): less than 20%
- decrease in prasugrel concentration ([4]; pH 4, 0.1 M phosphate buffer, after 30 hours): less than 10%
- decrease in prasugrel concentration ([4]; pH 4, 0.1 M phosphate buffer, after about 55 hours): less than 20%
- decrease in prasugrel concentration ([4]; pH 6, 0.1 M phosphate buffer, after 30 hours): about 20%
- decrease in prasugrel concentration ([4]; pH 6, 0.1 M phosphate buffer, after about 55 hours): about 36%
- stability in aqueous solution containing a sulfoalkyl ether-β-cyclodextrin versus pH ([4]; pH 3, 4 and 6 compared): more stable at pH 4 or less
- stability in aqueous solution containing a sulfoalkyl ether-β-cyclodextrin versus pH [5]: more stable at pH 4 or less
- stability in SBE6.5-β-CD versus HP4.3-β-CD ([5]; 30% w/v solutions, pH 4, 0.1 M phosphate buffer, FIG. 6): nearly identical stability
SMILES: CC(=O)Oc1cc2c(s1)CCN(C(C(=O)C1CC1)c1ccccc1F)C2 (racemic) [Prasugrel, 5-[(1RS)-2-cyclopropyl-1-(2-fluorophenyl)-2-oxoethyl]-4,5,6,7-tetrahydrothieno[3,2-c]pyridin-2-yl acetate]
- time to return to baseline levels of platelet aggregation (platelet aggregation): 7 to 10 days
- platelet inhibition and response compared to clopidogrel (platelet): greater platelet inhibition and more consistent response
